# Columns and labels:
# Oral LD50 [1] = type: in vivo, mice OF1; details: taken orally, tragacant gum as vehicle
# Excerpt: (§1) Moreover, the anatomopathological elements and the clinical events were characterized during the experiments.
# Oral LD50 [2] = type: in vivo, Sprague Dawley rats; details: taken orally, tragacant gum as vehicle
# Excerpt: as §1
# [3] = Chronic study, external application for six months; type: in vivo, Sprague Dawley rats; details: applied externally for a period of six months
# Excerpt: Chronic studies of 2-bromo-5-(2-bromo-nitro-vinyl)-furan were made on Sprague Dawley rats.
smiles,measurement,setting,value
"O=[N+]([O-])C(Br)=Cc1ccc(Br)o1 [Product G-1, 2-bromo-5-(2-bromo-2-nitro-vinyl)-furan]",Lethal Average Dose (LD50),Oral LD50 [1]; mice OF1 females,1731.4 mg/kg of body mass
same,Lethal Average Dose (LD50),Oral LD50 [1]; mice OF1 male,1835.8 mg/kg of body mass
same,Lethal Average Dose (LD50),Oral LD50 [2]; female Sprague Dawley rats,1515.5 mg/kg of body mass
same,Lethal Average Dose (LD50),Oral LD50 [2]; male Sprague Dawley rats,1857 mg/kg of body mass
same,"haematological, haemochemical and histopathological studies",[3],did not lead to any major problems in the different organs and tissues analysed
